Source: US12458021B2, “Microbiocidal derivatives” (SYNGENTA CROP PROTECTION AG, priority 2019, dated 2025)

Tests used:
[1] = tested on: Blumeria graminis f. sp. tritici (Erysiphe graminis f. sp. tritici); assay: Blumeria graminis f. sp. tritici / wheat / leaf disc preventative (powdery mildew on wheat); format: in vivo; settings: foliar, wheat leaf segments cv. Kanzler, inoculated 1 day after application, assessed 6-8 days after application, read-out: control of Blumeria graminis f. sp. tritici (percent disease control compared to untreated)
Excerpt: Example B4: Blumeria graminis f. sp. tritici (Erysiphe graminis f. sp. tritici)/Wheat/Leaf Disc Preventative (Powdery Mildew on Wheat) Wheat leaf segments cv. Kanzler are placed on agar in a multiwell plate (24-well format) and sprayed with the formulated test compound diluted in water. The leaf disks are inoculated by shaking powdery mildew infected plants above the test plates 1 day after application. […] […]-192.

[2] = tested on: Puccinia recondita f. sp. tritici; assay: Puccinia recondita f. sp. tritici / wheat / leaf disc preventative (brown rust); format: in vivo; settings: foliar, wheat leaf segments cv. Kanzler, inoculated 1 day after application, assessed 7-9 days after application, read-out: control of Puccinia recondita f. sp. tritici, preventative (percent disease control compared to untreated)
Experimental: Example B11: Puccinia recondita f. sp. tritici/Wheat/Leaf Disc Preventative (Brown Rust) Wheat leaf segments cv. Kanzler are placed on agar in multiwell plates (24-well format) and sprayed with the formulated test compound diluted in water. The leaf disks are inoculated with a spore suspension of the fungus 1 day after application. The inoculated leaf segments are incubated at 19° C. and 75% rh under a light regime of 12 h light/12 h darkness in a climate cabinet and the activity of a compound is assessed as percent disease control compared to untreated when an appropriate level of disease damage appears in untreated check leaf segments (7-9 days after application). […] […]-190.

[3] = tested on: Monographella nivalis (Microdochium nivale); assay: Monographella nivalis (Microdochium nivale) / liquid culture (foot rot cereals); format: cell-based; settings: PDB potato dextrose broth, 24° C., 4-5 days after application, read-out: control of Monographella nivalis (inhibition of growth, photometric)
Summary of the method: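 Growth inhibition measured by photometry 4-5 days post-application at 24° C. Compound was dispensed as DMSO solution, then PDB broth containing conidia from cryogenic storage was added.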

[4] = tested on: Mycosphaerella graminicola (Septoria tritici); assay: Mycosphaerella graminicola (Septoria tritici) / liquid culture (Septoria blotch); format: cell-based; settings: Zymoseptoria tritici, PDB potato dextrose broth, 24° C., 4-5 days after application, read-out: control of Mycosphaerella graminicola (inhibition of growth, photometric)
Summary of the method: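 Fungal growth inhibition was read photometrically 4-5 days after application. Compound was dosed from a DMSO solution into liquid cultures of spores in potato dextrose broth, incubated at 24° C.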

[5] = tested on: Magnaporthe grisea (Pyricularia oryzae); assay: whole plant or invertebrate; format: in vivo; settings: foliar, read-out: control of Magnaporthe grisea (percent disease control compared to untreated)
[6] = tested on: Glomerella lagenarium (Colletotrichum lagenarium); assay: Glomerella lagenarium (Colletotrichum lagenarium) / liquid culture (anthracnose); format: cell-based; settings: Colletotrichum orbiculare, PDB potato dextrose broth, 24° C., 3-4 days after application, read-out: control of Glomerella lagenarium (inhibition of growth, photometric)
Summary of the method: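 Fungal growth inhibition measured photometrically 3-4 days post-application at 24° C. Spores were mixed directly into potato dextrose broth and dispensed onto test compound supplied in DMSO.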

COc1ccc(Nc2cc(F)nc(F)c2)nc1C(=O)NC(C)C(C)C (stereo not shown) [Compound P-167, 6-[(2,6-difluoro-4-pyridyl)amino]-N-(1,2-dimethylpropyl)-3-methoxy-pyridine-2-carboxamide]
≥ 80%: pest or weed control at 200 ppm [1] | pest or weed control at 200 ppm [2]

COc1ccc(Nc2cc(F)nc(F)c2)nc1C(=O)NCCc1ccccc1 [Compound P-31, 6-[(2,6-difluoro-4-pyridyl)amino]-3-methoxy-N-(2-phenylethyl)pyridine-2-carboxamide]
≥ 80%: pest or weed control at 200 ppm [2]

COc1ccc(Nc2cc(F)cc(F)c2)[n+]([O-])c1C(=O)NC(C)(C)C [Compound P-117, N-tert-butyl-6-(3,5-difluoroanilino)-3-methoxy-1-oxido-pyridin-1-ium-2-carboxamide]
≥ 80%: inhibition at 20 ppm [3] | inhibition at 20 ppm [4] | pest or weed control at 200 ppm [5] | pest or weed control at 200 ppm [1] | pest or weed control at 200 ppm [2] | inhibition at 20 ppm [6]

CC(C)(C)NC(=O)c1cccc(Nc2cc(F)nc(F)c2)n1 [Compound P-114, N-tert-butyl-6-[(2,6-difluoro-4-pyridyl)amino]pyridine-2-carboxamide]
≥ 80%: inhibition at 20 ppm [3] | inhibition at 20 ppm [4] | pest or weed control at 200 ppm [1] | pest or weed control at 200 ppm [2] | inhibition at 20 ppm [6]

CC(C)(C)CNC(=O)c1cccc(Nc2cc(F)nc(F)c2)n1 [Compound P-113, 6-[(2,6-difluoro-4-pyridyl)amino]-N-(2,2-dimethylpropyl)pyridine-2-carboxamide]
≥ 80%: inhibition at 20 ppm [3] | inhibition at 20 ppm [4] | pest or weed control at 200 ppm [5] | pest or weed control at 200 ppm [1] | inhibition at 20 ppm [6]

COc1ccc(Nc2cc(F)nc(F)c2)nc1C(=O)NC1CCc2cc(C(F)(F)F)ccc21 (stereo not shown) [Compound P-47, 6-[(2,6-difluoro-4-pyridyl)amino]-3-methoxy-N-[5-(trifluoromethyl)indan-1-yl]pyridine-2-carboxamide]
≥ 80%: inhibition at 20 ppm [3] | inhibition at 20 ppm [4] | pest or weed control at 200 ppm [5] | pest or weed control at 200 ppm [2] | inhibition at 20 ppm [6]

COc1ccc(Nc2cc(F)nc(F)c2)nc1C(=O)NC1CC(c2ccc(Cl)cc2)C1 (stereo not shown) [Compound P-188]
≥ 80%: pest or weed control at 200 ppm [2]

COc1ccc(N(C#N)c2cc(F)nc(F)c2)nc1C(=O)NC1CCC1(C)C (stereo not shown) [Compound P-21, 6-[cyano-(2,6-difluoro-4-pyridyl)amino]-N-(2,2-dimethylcyclobutyl)-3-methoxy-pyridine-2-carboxamide]
≥ 80%: pest or weed control at 200 ppm [5] | pest or weed control at 200 ppm [1] | pest or weed control at 200 ppm [2]

COc1ccc(Nc2cc(F)nc(F)c2)nc1C(=O)NC1(C2CCCCC2)CC1 [Compound P-88, N-(1-cyclohexylcyclopropyl)-6-[(2,6-difluoro-4-pyridyl)amino]-3-methoxy-pyridine-2-carboxamide]
≥ 80%: pest or weed control at 200 ppm [5] | pest or weed control at 200 ppm [2] | inhibition at 20 ppm [6]

CCC1(NC(=O)c2nc(Nc3cc(F)nc(F)c3)ccc2OC)CCC1 [Compound P-183, 6-[(2,6-difluoro-4-pyridyl)amino]-N-(1-ethylcyclobutyl)-3-methoxy-pyridine-2-carboxamide]
≥ 80%: inhibition at 20 ppm [3] | inhibition at 20 ppm [4] | pest or weed control at 200 ppm [1] | pest or weed control at 200 ppm [2]

COc1ccc(Nc2cc(F)nc(F)c2)nc1C(=O)NC(C)C(C)(C)C (stereo not shown) [Compound P-169, 6-[(2,6-difluoro-4-pyridyl)amino]-3-methoxy-N-(1,2,2-trimethylpropyl)pyridine-2-carboxamide]
≥ 80%: pest or weed control at 200 ppm [1] | pest or weed control at 200 ppm [2]

COc1ccc(Nc2cc(F)nc(F)c2)nc1C(=O)NC1(C2CCC2)CCC1 [Compound P-182, N-(1-cyclobutylcyclobutyl)-6-[(2,6-difluoro-4-pyridyl)amino]-3-methoxy-pyridine-2-carboxamide]
≥ 80%: pest or weed control at 200 ppm [1] | pest or weed control at 200 ppm [2]

COc1ccc(Nc2cc(F)nc(F)c2)nc1C(=O)NC(C)(C)C(C)(C)C [Compound P-174, 6-[(2,6-difluoro-4-pyridyl)amino]-3-methoxy-N-(1,1,2,2-tetramethylpropyl)pyridine-2-carboxamide]
≥ 80%: inhibition at 20 ppm [4] | pest or weed control at 200 ppm [2]

COc1ccc(Nc2cc(F)nc(F)c2)nc1C(=O)NC1(C)CC1 [Compound P-92, 6-[(2,6-difluoro-4-pyridyl)amino]-3-methoxy-N-(1-methylcyclopropyl)pyridine-2-carboxamide]
≥ 80%: pest or weed control at 200 ppm [1] | pest or weed control at 200 ppm [2]

CC1(C)CCC1NC(=O)c1nc(Nc2cc(F)nc(F)c2)ccc1O (stereo not shown) [Compound P-1, 6-[(2,6-difluoro-4-pyridyl)amino]-N-(2,2-dimethylcyclobutyl)-3-hydroxy-pyridine-2-carboxamide]
≥ 80%: inhibition at 20 ppm [3] | inhibition at 20 ppm [4] | pest or weed control at 200 ppm [2] | inhibition at 20 ppm [6]

COc1ccc(Nc2cncc(F)c2)nc1C(=O)NCC(C)(C)C [Compound P-105, N-(2,2-dimethylpropyl)-6-[(5-fluoro-3-pyridyl)amino]-3-methoxy-pyridine-2-carboxamide]
≥ 80%: pest or weed control at 200 ppm [5] | pest or weed control at 200 ppm [1] | pest or weed control at 200 ppm [2]

COc1ccc(Nc2cc(F)cc(F)c2)nc1C(=O)NC1CC(c2ccc(Cl)cc2)C1 (stereo not shown) [Compound P-187, N-[3-(4-chlorophenyl)cyclobutyl]-6-(3,5-difluoroanilino)-3-methoxy-pyridine-2-carboxamide]
≥ 80%: inhibition at 20 ppm [3] | inhibition at 20 ppm [4] | pest or weed control at 200 ppm [2] | inhibition at 20 ppm [6]

COc1ccc(Nc2ccnc(F)c2)nc1C(=O)NCC(C)(C)C [Compound P-136, N-(2,2-dimethylpropyl)-6-[(2-fluoro-4-pyridyl)amino]-3-methoxy-pyridine-2-carboxamide]
≥ 80%: pest or weed control at 200 ppm [2] | inhibition at 20 ppm [6]

COc1ccc(Nc2cc(C)cc(C#N)c2)nc1C(=O)NCC(C)(C)C [Compound P-143, 6-(3-cyano-5-methyl-anilino)-N-(2,2-dimethylpropyl)-3-methoxy-pyridine-2-carboxamide]
≥ 80%: pest or weed control at 200 ppm [2]

COc1ccc(Nc2cc(F)nc(F)c2)nc1C(=O)NC1(c2cccc(Cl)n2)CCC1 [Compound P-184, N-[1-(6-chloro-2-pyridyl)cyclobutyl]-6-[(2,6-difluoro-4-pyridyl)amino]-3-methoxy-pyridine-2-carboxamide]
≥ 80%: pest or weed control at 200 ppm [2]

COc1ccc(Nc2cc(F)cc(F)c2)nc1C(=O)NC1(c2cccc(Cl)n2)CCC1 [Compound P-177, N-[1-(6-chloro-2-pyridyl)cyclobutyl]-6-(3,5-difluoroanilino)-3-methoxy-pyridine-2-carboxamide]
≥ 80%: inhibition at 20 ppm [3] | inhibition at 20 ppm [4] | pest or weed control at 200 ppm [5] | pest or weed control at 200 ppm [1] | pest or weed control at 200 ppm [2] | inhibition at 20 ppm [6]

COc1ccc(Nc2cc(F)nc(F)c2)nc1C(=O)NCC(C)(C)C [Compound P-30, 6-[(2,6-difluoro-4-pyridyl)amino]-N-(2,2-dimethylpropyl)-3-methoxy-pyridine-2-carboxamide]
≥ 80%: inhibition at 20 ppm [4] | pest or weed control at 200 ppm [5] | pest or weed control at 200 ppm [1] | pest or weed control at 200 ppm [2] | inhibition at 20 ppm [6]

COc1ccc(Nc2cnsc2)nc1C(=O)NCc1cnc(C(F)(F)F)nc1 [Compound P-80, 6-(isothiazol-4-ylamino)-3-methoxy-N-[[2-(trifluoromethyl)pyrimidin-5-yl]methyl]pyridine-2-carboxamide]
≥ 80%: pest or weed control at 200 ppm [2]

CCc1cccc(Nc2ccc(OC)c(C(=O)NCC(C)(C)C)n2)c1 [Compound P-137, N-(2,2-dimethylpropyl)-6-(3-ethylanilino)-3-methoxy-pyridine-2-carboxamide]
≥ 80%: pest or weed control at 200 ppm [2] | inhibition at 20 ppm [6]

COc1ccc(Nc2cc(F)nc(F)c2)nc1C(=O)NC1(C(C)C)CCC1 [Compound P-181, 6-[(2,6-difluoro-4-pyridyl)amino]-N-(1-isopropylcyclobutyl)-3-methoxy-pyridine-2-carboxamide]
≥ 80%: inhibition at 20 ppm [3] | inhibition at 20 ppm [4] | pest or weed control at 200 ppm [1] | pest or weed control at 200 ppm [2]
